According to US20070197538A1, “Anti-vascular and anti-proliferation methods, therapies, and combinations employing specific tyrosine kinase inhibitors” (priority 2004, published 2007):
Structures can show the parent of a compound that is named as a salt.

Columns and labels:
[1] = test system: Mouse endothelial cells from pancreas; experiment: sensitivity of pancreas endothelial cells to Taxotere cytotoxicity; format: cell-based; settings: with Taxotere; for sensitivity of endothelial cells to cytotoxicity mediated by Taxotere: cells at 33° C.
Protocol: Mouse endothelial cells from pancreas are maintained in culture at a temperature 33° C. where they are actively dividing.

L3.6 pL pancreatic tumor = experiment: orthotopic human pancreatic cancer L3.6 pL in nude mice; format: in vivo; settings: combination with Taxotere; for survival rate: 4-6 weeks; for effect of the combination in cancer refractory to chemotherapy: tumor cells resistant to Taxotere (MDR cells)
Protocol: A pancreatic tumor which is shown to upregulate expression of PDGF AA, BB, A/B at metastatic sites is used for the in vivo studies. Other tumor systems that are known to upregulate expression of PDGF may also be used such as ovarian cancer, prostate cancer, bone metastasis, or breast cancer bone metastasis.
Tumor cells L3.6 pL derived from pancreatic cancer are injected into the pancreas of nude mice. The tumors are grown into detectable lesions.
Two days later, the mice are killed and the organs with and without tumors harvested, fixed, and immunostained to evaluate expression of PDGF AA, BB, A/B, PDGF-R (α,β) and status of phosphorylation of PDGF-R (α,β) on tumor cells and organ-specific endothelial cells.
The surviving mice are then killed and the size of tumor and metastasis is measured. Fixation of the tissues and staining of the tumor cells are performed. Endothelial cells are examined for division (PCNA), apoptosis (TUNEL), CD31 (endothelial cells). Expression of PDGF AA, BB, A/B, and phosphorylation of PDGF-Rα/β are further studied in these endothelial cells.

MV4;11 cells = experiment: intravenous MV4;11 leukemia model in NOD-SCID mice; format: in vivo; settings: for large infiltrating cells with mitotic figures in bone marrow: H&E-stained sections; for large infiltrating cells with mitotic figures in bone marrow / CD45 positive cells in bone marrow: oral 50-200 mg/kg; for CD45 positive cells in bone marrow: flow cytometry; for survival: oral, 50-200 mg/kg, once daily or 3 times per week
Protocol: In a subset of animals, bone marrow cell suspensions are prepared by flushing mouse femurs with cold sterile PBS, at experimental timepoints (within 90 days of implantation).

[2] = test system: blastic phase chronic myelogenous leukemia (CML); settings: two trials, total of 304 patients; cited from earlier work
accelerated phase CML = settings: at 24 months; cited from earlier work
Lck = target: T1, Lck (Homo sapiens, UniProt P06239); settings: literature; cited from earlier work
T1 construct: host or cells: baculovirus system

FYN = FYN (Homo sapiens, UniProt P06241); settings: literature; cited from earlier work
[3] = test system: RS4-11 cells (FLT3-wild type); experiment: RS4-11 cell growth, luminescence assay at 72 hours; format: cell-based, human; settings: with or without 100 ng/mL FLT3 ligand, FIGS. 5 and 6
[4] = test system: AML193 cells (wild type FLT3); experiment: AML193 cell growth, luminescence assay at 72 hours; settings: with or without 100 ng/mL FLT3 ligand, GN963 at concentrations used (30 μM), FIGS. 3 and 4

T1 sequence (P06239 whole entry): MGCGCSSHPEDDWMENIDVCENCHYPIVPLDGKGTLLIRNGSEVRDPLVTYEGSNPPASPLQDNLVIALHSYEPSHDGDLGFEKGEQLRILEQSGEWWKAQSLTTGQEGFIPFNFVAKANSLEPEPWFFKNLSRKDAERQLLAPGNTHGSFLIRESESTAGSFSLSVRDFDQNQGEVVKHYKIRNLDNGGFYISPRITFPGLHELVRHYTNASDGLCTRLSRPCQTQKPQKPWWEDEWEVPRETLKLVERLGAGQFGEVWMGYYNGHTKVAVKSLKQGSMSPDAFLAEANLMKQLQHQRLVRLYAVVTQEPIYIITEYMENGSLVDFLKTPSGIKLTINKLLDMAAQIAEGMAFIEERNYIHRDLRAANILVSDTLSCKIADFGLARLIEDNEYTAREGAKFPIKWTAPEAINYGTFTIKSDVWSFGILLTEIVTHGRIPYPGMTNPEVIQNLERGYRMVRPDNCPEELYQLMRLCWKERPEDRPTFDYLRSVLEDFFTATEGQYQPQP
Sequence of FYN (P06241 whole entry, species assumed): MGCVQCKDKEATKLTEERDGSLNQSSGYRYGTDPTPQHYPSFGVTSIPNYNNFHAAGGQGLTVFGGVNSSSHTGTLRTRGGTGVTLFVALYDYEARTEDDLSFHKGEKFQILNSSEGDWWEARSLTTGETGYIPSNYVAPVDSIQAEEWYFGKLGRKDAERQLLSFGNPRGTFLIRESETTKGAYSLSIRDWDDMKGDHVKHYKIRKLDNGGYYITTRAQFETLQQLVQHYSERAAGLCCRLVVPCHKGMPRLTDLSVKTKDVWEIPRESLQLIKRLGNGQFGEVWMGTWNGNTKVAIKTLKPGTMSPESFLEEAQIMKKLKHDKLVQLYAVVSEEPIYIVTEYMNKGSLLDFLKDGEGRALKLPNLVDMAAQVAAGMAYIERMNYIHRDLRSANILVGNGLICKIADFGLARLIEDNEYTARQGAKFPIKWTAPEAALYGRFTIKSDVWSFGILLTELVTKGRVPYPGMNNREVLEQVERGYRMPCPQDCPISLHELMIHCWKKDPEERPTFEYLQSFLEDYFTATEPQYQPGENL

Q: With `CC(C)Oc1ccc2nc(Nc3ccccc3)cnc2c1.Cl` as the compound, how does the melting point read?
A: The melting point was 205 to 210 °C (dec.).

Q: Which melting point does the source give for `COc1cc2ncc(CNC3CCCCC3)nc2cc1OC` (as salt: HCl) [Example 7, Cyclohexyl-(6,7-dimethoxyquinoxalin-2-ylmethyl)-amine] here?
A: Its melting point is 185 to 190 °C (dec.).

Q: For `COc1cc2ncc(N[C@@H]3CC[C@@H](O)[C@H](C)C3)nc2cc1OC` (stereo in doubt) [GN271, (1R,2R,4R)-4-(6,7-dimethoxy-quinoxalin-2-ylamino)-2-methyl-cyclohexanol], which “resistance of organ-specific endothelial cells to Taxotere increased by pancreatic tumor-conditioned medium” value [1] is on record?
A: The value was “reversal of this increased resistance”.

Q: What about the “sensitivity of endothelial cells to cytotoxicity mediated by Taxotere” value [1] of the same compound?
A: Its value is “increases sensitivity of endothelial cells to cytotoxicity mediated by Taxotere”.

Q: What about the survival rate (L3.6 pL pancreatic tumor) of the same compound?
A: Its survival rate is “higher survival rate”.

Q: And the “effect of the combination in cancer refractory to chemotherapy” value (L3.6 pL pancreatic tumor)?
A: Its value is “synergistic effect”.

Q: What about the “large infiltrating cells with mitotic figures in bone marrow” value (MV4;11 cells) of the same compound?
A: The value was “reduced numbers of large infiltrating cells with mitotic figures”.

Q: What about the “CD45 positive cells in bone marrow” value (MV4;11 cells) of the same compound?
A: Its value is “reduced numbers of CD45 positive cells”.

Q: What about the survival (MV4;11 cells) of the same compound?
A: Its survival is “prolonged survival”.

Q: For `Oc1ccc2nc(Nc3ccccc3)cnc2c1` [Example 4, 2-Anilino-6-quinoxalinol], which melting point is on record?
A: The melting point was 211 to 213 °C.

Q: Which melting point does the source give for `c1ccc(Nc2cnc3cc(O[C@@H]4CCOC4)ccc3n2)cc1` [Example 5, Phenyl-[6-(tetrahydrofuran-3-(R)-yl-oxy)quinoxalin-2-yl]amine] here?
A: The melting point was 173 to 175 °C.

Q: Which melting point does the source give for `COc1cc2ncc(OC3CCCCC3)nc2cc1OC1CCCCC1` [Example 6, 2,7-Bis-cyclohexyloxy-6-methoxy-quinoxaline] here?
A: Its melting point is 75 to 78 °C.

Q: Which melting point does the source give for `COc1cc2cc(NCC(C)(C)CO)cnc2cc1OC` [Example 9, 3-(6,7-Dimethoxyquinolin-3-yl-amino)-2,2-dimethyl-propan-1-ol] here?
A: The melting point was 170 to 173.5 °C.

Q: Which melting point does the source give for `COc1cc2ncc(NC3CCCCC3)nc2cc1N1CCOCC1` [Example 10, Cyclohexyl-(6-methoxy-7-morpholin-4-yl-quinoxalin-2-yl)-amine] here?
A: Its melting point is 194 to 196 °C.

Q: For `COc1cc2ncc(OC3CC4CC3C(O)C4O)nc2cc1OC` (centres unmarked) [Example 17, 5-(6,7-Dimethoxyquinoxalin-2-yloxy)-bicyclo [2.2.1]heptane-2,3-diol], which melting point is on record?
A: The melting point was 85 to 88 °C.

Q: For `COc1cc2ncc(OC3CCC(OC(=O)N(C)C)CC3)nc2cc1OC` (centres unmarked) [Example 19, Dimethyl-carbamic acid 4-(6,7-dimethoxyquinoxalin-2-yloxy)-cyclohexyl ester], which melting point is on record?
A: The melting point was 152 to 155 °C.

Q: For `COc1cc2ncc(N[C@H]3CC[C@H](OC(C)=O)CC3)nc2cc1OC` [Example 21, Acetic acid trans-4-(6,7-dimethoxyquinoxalin-2-ylamino)-cyclohexyl ester], which melting point is on record?
A: Its melting point is 176 to 177 °C.

Q: Which melting point does the source give for `COc1cc2ncc(N[C@@H]3C[C@H]4CC[C@@H]3C4)nc2cc1OC` [Example 25, (1R,2R,4S)-(+)-Bicyclo[2.2.1]hept-2-yl-(6,7-dimethoxyquinoxalin-2-yl)-amine] here?
A: Its melting point is 184 to 186 °C.

Q: For `COc1cc2ncc(N[C@@H]3C[C@@H]4C[C@H]3C[C@H]4O)nc2cc1OC` [GN804, (1S,2R,4S,5R)-5-(6,7-Dimethoxyquinoxalin-2-ylamino)-Bicyclo[2.2.1]heptan-2-ol], which “resistance of organ-specific endothelial cells to Taxotere increased by pancreatic tumor-conditioned medium” value [1] is on record?
A: Its value is “reversal of this increased resistance”.

Q: What about the “sensitivity of endothelial cells to cytotoxicity mediated by Taxotere” value [1] of the same compound?
A: Its value is “increases sensitivity of endothelial cells to cytotoxicity mediated by Taxotere”.

Q: And the survival rate (L3.6 pL pancreatic tumor)?
A: Its survival rate is “higher survival rate”.

Q: What about the “effect of the combination in cancer refractory to chemotherapy” value (L3.6 pL pancreatic tumor) of the same compound?
A: Its value is “synergistic effect”.

Q: And the “large infiltrating cells with mitotic figures in bone marrow” value (MV4;11 cells)?
A: Its value is “reduced numbers of large infiltrating cells with mitotic figures”.

Q: And the “CD45 positive cells in bone marrow” value (MV4;11 cells)?
A: The value was “reduced numbers of CD45 positive cells”.

Q: What about the survival (MV4;11 cells) of the same compound?
A: The survival was “prolonged survival”.

Q: For `Cc1ccc(NC(=O)c2ccc(CN3CCN(C)CC3)cc2)cc1Nc1nccc(-c2cccnc2)n1` [Gleevec, imatinib mesylate], which “estimated 1-year survival” value [2] is on record?
A: The value was “under 35%”.

Q: What about the “major cytogenetic response rate” value [2] of the same compound?
A: Its value is 16%.

Q: What about the “incidence of disease progression” value (accelerated phase CML) of the same compound?
A: Its value is 50%.

Q: Which results are given for `Cc1ccc(-c2nn(C(C)(C)C)c3ncnc(N)c23)cc1` [PP1]?
A: LCK inhibitory potency (Lck): low nanomolar potency; FYN inhibitory potency (FYN): low nanomolar potency

Q: With `CN[C@@H]1C[C@H]2O[C@@](C)([C@@H]1OC)n1c3ccccc3c3c4c(c5c6ccccc6n2c5c31)C(=O)NC4` [staurosporine, reference compound] as the compound, how does the “effect on RS4-11 cell growth” value [3] read?
A: Its value is “inhibits RS4-11 cell growth”.

Q: And the “effect on AML193 cell growth” value [4]?
A: Its value is “inhibits AML193 cell growth”.
